In PubChem BioAssay (NCI):
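Method: 48-hour compound exposure of cells in 96-well plates, five concentrations, linear interpolation of endpoints. TGI marks complete inhibition of growth.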

Assays:
Test in all cases: growth of human tumour cells (NCI), 48 h
SR leukemia = test system: SR leukemia
MDA-MB-231 breast = test system: MDA-MB-231 breast
SF-539 CNS = test system: SF-539 CNS
SNB-19 CNS = test system: SNB-19 CNS
OVCAR-5 ovarian = test system: OVCAR-5 ovarian
K-562 leukemia = test system: K-562 leukemia
RPMI-8226 leukemia = test system: RPMI-8226 leukemia
786-0 renal = test system: 786-0 renal
HOP-92 NSCLC = test system: HOP-92 NSCLC
DU-145 prostate = test system: DU-145 prostate
MCF7 breast = test system: MCF7 breast
IGROV1 ovarian = test system: IGROV1 ovarian
SF-268 CNS = test system: SF-268 CNS
U251 CNS = test system: U251 CNS
EKVX NSCLC = test system: EKVX NSCLC
SNB-75 CNS = test system: SNB-75 CNS
SK-MEL-5 melanoma = test system: SK-MEL-5 melanoma
OVCAR-8 ovarian = test system: OVCAR-8 ovarian
NCI/ADR-RES ovarian = test system: NCI/ADR-RES ovarian
MOLT-4 leukemia = test system: MOLT-4 leukemia
NCI-H226 lung = test system: NCI-H226 lung
CCRF-CEM leukemia = test system: CCRF-CEM leukemia
SK-MEL-2 melanoma = test system: SK-MEL-2 melanoma
A549 NSCLC = test system: A549 NSCLC
HL-60(TB) leukemia = test system: HL-60(TB) leukemia
NCI-H460 lung = test system: NCI-H460 lung
SN12C renal = test system: SN12C renal
UACC-257 melanoma = test system: UACC-257 melanoma
HS 578T breast = test system: HS 578T breast
COLO 205 colon = test system: COLO 205 colon
M14 melanoma = test system: M14 melanoma
MDA-N = test system: MDA-N
PC-3 prostate = test system: PC-3 prostate
HCC-2998 colon = test system: HCC-2998 colon
LOX IMVI melanoma = test system: LOX IMVI melanoma
SK-MEL-28 melanoma = test system: SK-MEL-28 melanoma
SW-620 colon = test system: SW-620 colon
OVCAR-4 ovarian = test system: OVCAR-4 ovarian
BT-549 breast = test system: BT-549 breast
CAKI-1 renal = test system: CAKI-1 renal
MDA-MB-435 = test system: MDA-MB-435
HCT-116 colon = test system: HCT-116 colon
OVCAR-3 ovarian = test system: OVCAR-3 ovarian
MALME-3M melanoma = test system: MALME-3M melanoma
NCI-H522 lung = test system: NCI-H522 lung
A498 renal = test system: A498 renal
RXF 393 renal = test system: RXF 393 renal
UACC-62 melanoma = test system: UACC-62 melanoma
TK-10 renal = test system: TK-10 renal
UO-31 renal = test system: UO-31 renal
KM12 colon = test system: KM12 colon
HCT-15 colon = test system: HCT-15 colon
SF-295 CNS = test system: SF-295 CNS
T-47D breast = test system: T-47D breast
ACHN renal = test system: ACHN renal
SK-OV-3 ovarian = test system: SK-OV-3 ovarian
HT29 colon = test system: HT29 colon
HOP-62 NSCLC = test system: HOP-62 NSCLC
NCI-H23 lung = test system: NCI-H23 lung

Measured: TGI

Nc1ccc2nc(-c3ccccn3)c(-c3ccccn3)nc2c1
> 100 µM: SR leukemia | MDA-MB-231 breast | SF-539 CNS | SNB-19 CNS | OVCAR-5 ovarian | K-562 leukemia | RPMI-8226 leukemia | 786-0 renal | HOP-92 NSCLC | DU-145 prostate | MCF7 breast | IGROV1 ovarian | SF-268 CNS | U251 CNS | EKVX NSCLC | SNB-75 CNS | SK-MEL-5 melanoma | OVCAR-8 ovarian | NCI/ADR-RES ovarian | MOLT-4 leukemia | NCI-H226 lung | CCRF-CEM leukemia | SK-MEL-2 melanoma | A549 NSCLC | HL-60(TB) leukemia | NCI-H460 lung | SN12C renal | UACC-257 melanoma | HS 578T breast | COLO 205 colon | M14 melanoma | MDA-N | PC-3 prostate | HCC-2998 colon | LOX IMVI melanoma | SK-MEL-28 melanoma | SW-620 colon | OVCAR-4 ovarian | BT-549 breast | CAKI-1 renal | MDA-MB-435 | HCT-116 colon | OVCAR-3 ovarian | MALME-3M melanoma | NCI-H522 lung | A498 renal | RXF 393 renal | UACC-62 melanoma | TK-10 renal | UO-31 renal | KM12 colon | HCT-15 colon | SF-295 CNS | T-47D breast | ACHN renal

O=C1/C(=C/c2ccccc2)N=C(c2ccccc2)N1n1c(-c2ccccc2)nc2ccccc2c1=O
> 100 µM: SR leukemia | SK-OV-3 ovarian | MDA-MB-231 breast | SF-539 CNS | SNB-19 CNS | OVCAR-5 ovarian | K-562 leukemia | RPMI-8226 leukemia | 786-0 renal | HOP-92 NSCLC | DU-145 prostate | MCF7 breast | IGROV1 ovarian | SF-268 CNS | U251 CNS | EKVX NSCLC | SNB-75 CNS | SK-MEL-5 melanoma | OVCAR-8 ovarian | NCI/ADR-RES ovarian | MOLT-4 leukemia | NCI-H226 lung | HT29 colon | HOP-62 NSCLC | CCRF-CEM leukemia | A549 NSCLC | HL-60(TB) leukemia | NCI-H460 lung | SN12C renal | UACC-257 melanoma | HS 578T breast | NCI-H23 lung | COLO 205 colon | M14 melanoma | MDA-N | PC-3 prostate | HCC-2998 colon | LOX IMVI melanoma | SK-MEL-28 melanoma | SW-620 colon | OVCAR-4 ovarian | BT-549 breast | MDA-MB-435 | HCT-116 colon | OVCAR-3 ovarian | MALME-3M melanoma | NCI-H522 lung | A498 renal | RXF 393 renal | UACC-62 melanoma | TK-10 renal | UO-31 renal | KM12 colon | HCT-15 colon | SF-295 CNS | T-47D breast | ACHN renal
